The source of these data is US20250230171A1 (MOMA Therapeutics, Inc., priority 2023, published 2025).

For orientation: IC50 means the concentration that inhibits the measured activity by half. By pIC50 is commonly meant −log10 of the IC50, conventionally taken in molar units.

One assay concerns DLD1 BRCA2 (−/−) cells. In words: 7-day cell viability assay (CellTiter-Glo), DLD1 BRCA2 (−/−). Particulars: n=2, read-out: Viability IC50 (uM) DLD1 BRCA2 null. Format: cell-based, human. The gist of the method:
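7-day growth assay in DLD1 cells with or without BRCA2; seeding densities chosen to keep log-linear growth. Compound: 10 uM top, 3-fold, 9 points. Endpoint: CTG ATP luminescence at RT.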
A general note: In ATP-based viability assays light output follows the ATP content of the culture.

Assay [1] addresses biotinylated Avi-POLθ[2-894] (Homo sapiens (Human), UniProt O75417). In words: POLθ ATPase assay (ADP-Glo). The settings on record: n=2, read-out: Biochemical ATPase ADPGlo IC50. For orientation: ADP-Glo first removes unused ATP, then detects ADP through luciferase.
In another assay the test system is DLD1 WT cells. In words: 7-day cell viability assay (CellTiter-Glo), DLD1 parental (WT). The class given is cell-based, human. Particulars: n=2.
Where [2] appears, read: Homo sapiens, DLD-1, 168 h, 7-day viability.
The mark [3] stands for this setting: Homo sapiens, DLD-1, 168 h, 7-day CellTiter-Glo.

pIC50: −log10 of the molar value. Read-outs that look alike come from different tables or passages of the source.

Sequence of biotinylated Avi-POLθ[2-894] (O75417 2-894): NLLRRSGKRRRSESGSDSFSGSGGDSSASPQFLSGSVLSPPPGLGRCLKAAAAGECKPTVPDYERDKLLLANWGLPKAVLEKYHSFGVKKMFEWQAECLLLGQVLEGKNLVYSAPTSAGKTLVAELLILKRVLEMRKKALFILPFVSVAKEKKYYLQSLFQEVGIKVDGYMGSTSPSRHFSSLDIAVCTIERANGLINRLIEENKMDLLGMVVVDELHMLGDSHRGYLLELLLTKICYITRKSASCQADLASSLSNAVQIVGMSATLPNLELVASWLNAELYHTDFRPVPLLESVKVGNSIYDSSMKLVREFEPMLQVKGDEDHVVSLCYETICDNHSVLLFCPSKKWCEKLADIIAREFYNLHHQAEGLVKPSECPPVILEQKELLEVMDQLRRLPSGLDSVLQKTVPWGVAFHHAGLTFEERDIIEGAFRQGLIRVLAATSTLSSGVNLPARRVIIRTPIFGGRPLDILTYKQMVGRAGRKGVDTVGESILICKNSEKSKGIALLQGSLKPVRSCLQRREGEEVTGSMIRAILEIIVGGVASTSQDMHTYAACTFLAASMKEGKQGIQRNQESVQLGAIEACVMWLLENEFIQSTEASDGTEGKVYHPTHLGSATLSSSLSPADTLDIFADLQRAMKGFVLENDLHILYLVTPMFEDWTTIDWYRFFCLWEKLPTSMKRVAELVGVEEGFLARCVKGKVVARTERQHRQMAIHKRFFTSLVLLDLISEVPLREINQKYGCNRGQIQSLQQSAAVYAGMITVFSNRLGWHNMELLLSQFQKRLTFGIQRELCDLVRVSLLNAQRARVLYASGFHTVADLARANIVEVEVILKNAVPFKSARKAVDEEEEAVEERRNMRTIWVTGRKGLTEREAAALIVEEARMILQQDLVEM

For the compound `COc1cnc(Cl)cc1-c1cc(C)ncc1C(=O)Nc1nc2c(s1)CC(N[C@H]1C[C@H](O)C1)CC2` (stereo partly drawn) [Example 141, 2′-Chloro-N-(6-(((1r,3r)-3-hydroxycyclobutyl)amino)-4,5,6,7-tetrahydrobenzo[d]thiazol-2-yl)-5′-methoxy-6-methyl-[4.4′-bipyridine]-3-carboxamide], the values for the IC50 with DLD1 BRCA2 (−/−) cells (7-day viability) and in the assay with DLD1 WT cells (7-day viability) were 0.001 to 0.1 µM and not below 10 µM, respectively. Besides, the pIC50 in assay [1] is 7.82 to 9.00.
In the case of `COc1cnc(Cl)cc1-c1cc(C)ncc1C(=O)Nc1nc2c(s1)CN(C(=O)c1ccccn1)C2`, the results for the IC50 with DLD1 BRCA2 (−/−) cells (setting [2]) and in the assay with DLD1 WT cells (setting [2]) were 0.1 to 0.25 µM and not below 10 µM, respectively. Besides, the pIC50 in assay [1] is 7.82 to 9.00.
Take `COc1cnc(Cl)cc1-c1cc(C)ncc1C(=O)Nc1nc2c(s1)CN(C(=O)c1cnn(C)c1Cl)C2`: the IC50 in the assay with DLD1 BRCA2 (−/−) cells (setting [2]) was 0.001 to 0.1 µM; with DLD1 WT cells (setting [2]), not below 10 µM. The pIC50 in assay [1] is 7.82 to 9.00.
In the same order, the values of `COc1cnc(Cl)cc1-c1cc(C)ncc1C(=O)Nc1nc2c(s1)CN(C(=O)C1CC3(CCC3)C1)C2` [Example 8, 2′-chloro-5′-methoxy-6-methyl-N-(5-(spiro[3.3]heptane-2-carbonyl)-5,6-dihydro-4H-pyrrolo[3,4-d]thiazol-2-yl)-[4,4′-bipyridine]-3-carboxamide] are 0.001 to 0.1 µM, 5 to 10 µM and 7.82 to 9.00.
For the compound `COc1cnc(Cl)cc1-c1cc(C)ncc1C(=O)Nc1nc2c(s1)CC(Nc1ccccc1)CC2` (stereo not drawn), the results for the IC50 in the assay with DLD1 BRCA2 (−/−) cells (setting [2]) and in the assay with DLD1 WT cells (setting [2]) were 0.1 to 0.25 µM and not below 10 µM, respectively. For the same compound, the pIC50 in assay [1] is 7.82 to 9.00.
As to `COc1ccc(C#N)cc1-c1cc(C)ncc1C(=O)Nc1nc2c(s1)CN(C(=O)c1cccc(C)n1)C2`, the 50% inhibitory concentration (IC50) was 0.5 to 2 µM in the assay with DLD1 BRCA2 (−/−) cells (setting [2]) and not below 10 µM in the assay on DLD1 WT cells (setting [2]). In assay [1], the pIC50 is 7.82 to 9.00.
Take `COc1cnc(Cl)cc1-c1cc(C)ncc1C(=O)Nc1nc2c(s1)CN(C(=O)c1cc(C)nn1C)C2` [Example 49, 2′-chloro-N-(5-(1,3-dimethyl-1H-pyrazole-5-carbonyl)-5,6-dihydro-4H-pyrrolo[3,4-d]thiazol-2-yl)-5′-methoxy-6-methyl-[4,4′-bipyridine]-3-carboxamide]: the IC50 with DLD1 BRCA2 (−/−) cells (setting [2]) is 0.001 to 0.1 µM; in the assay on DLD1 WT cells (setting [2]) it was not below 10 µM. Besides, the pIC50 in assay [1] was 7.82 to 9.00.
Turning to `COc1ccccc1-c1cc(C)ncc1C(=O)Nc1nc2c(s1)CN(C(=O)C1CC(OC(F)F)C1)C2` (racemic), the IC50 was 0.25 to 0.5 µM in the assay on DLD1 BRCA2 (−/−) cells (setting [2]) and not below 10 µM in the assay on DLD1 WT cells (setting [2]). In assay [1], the pIC50 was 7.82 to 9.00.
Take `COc1cnc(Cl)cc1-c1cc(C)ncc1C(=O)Nc1nc2c(s1)CN(C(=O)[C@@H]1CCCCO1)C2` [Example 216, (S) 2′-chloro-5′-methoxy-6-methyl-N-(5-(tetrahydro-2H-pyran-2-carbonyl)-5,6-dihydro-4H-pyrrolo[3,4-d]thiazol-2-yl)-[4,4′-bipyridine]-3-carboxamide]: the IC50 was 0.1 to 0.25 µM in the assay with DLD1 BRCA2 (−/−) cells (setting [2]) and not below 10 µM in the assay with DLD1 WT cells (setting [2]). Besides, the negative logarithm of the IC50 (pIC50) in assay [1] is 7.82 to 9.00.
`COc1cnc(Cl)cc1-c1cc(C)ncc1C(=O)Nc1nc2c(s1)CN(C(=O)c1cccc(Cl)n1)C2` [Example 7, 2′-chloro-N-(5-(6-chloropicolinoyl)-5,6-dihydro-4H-pyrrolo[3,4-d]thiazol-2-yl)-5′-methoxy-6-methyl-[4,4′-bipyridine]-3-carboxamide]: the IC50 was 0.001 to 0.1 µM in the assay with DLD1 BRCA2 (−/−) cells (setting [2]) and 2 to 5 µM in the assay with DLD1 WT cells (setting [2]). In addition, the pIC50 in assay [1] was 7.82 to 9.00.
As to `COc1ccc(C(=O)N2Cc3nc(NC(=O)c4cnc(C)cc4-c4cc(Cl)ncc4OC)sc3C2)c(OC)n1`, the IC50 in the assay on DLD1 BRCA2 (−/−) cells (setting [3]) lay within 0.001 to 0.1 µM; in the assay on DLD1 WT cells (setting [3]) it was 5 to 10 µM. The pIC50 in assay [1] (POLθ ATPase, ADP-Glo) is 7.82 to 9.00.
With `COc1cnccc1C(=O)N1Cc2nc(NC(=O)c3cnc(C)cc3-c3cc(Cl)ncc3OC)sc2C1` [Example 168], the figures for the IC50 in the assay with DLD1 BRCA2 (−/−) cells (setting [2]) and in the assay with DLD1 WT cells (setting [2]) were 0.1 to 0.25 µM and not below 10 µM, respectively. The pIC50 in assay [1] was 7.82 to 9.00.
As for `COc1cc(C(=O)N2Cc3nc(NC(=O)c4cnc(C)cc4-c4cc(C#N)ccc4OC)sc3C2)ccc1Cl`, the figures for the IC50 in the assay with DLD1 BRCA2 (−/−) cells (setting [3]) and with DLD1 WT cells (setting [3]) were 0.001 to 0.1 µM and 5 to 10 µM, respectively. Moreover, the pIC50 in assay [1] (POLθ ATPase, ADP-Glo) is 7.82 to 9.00.
On to `COc1cnc(Cl)cc1-c1cc(C)ncc1C(=O)Nc1nc2c(s1)CN(C(=O)c1ccn(C(F)F)n1)C2` [Example 159], for which the IC50 in the assay with DLD1 BRCA2 (−/−) cells (setting [2]) was 0.1 to 0.25 µM; in the assay on DLD1 WT cells (setting [2]) it was not below 10 µM. For the same compound, in assay [1], the negative-log IC50 (pIC50) is 7.82 to 9.00.
Consider `COc1cnc(Cl)cc1-c1cc(C)ncc1C(=O)Nc1nc2c(s1)CN(C(=O)c1ccc(OC(F)F)nc1Cl)C2`, for which the figures for the IC50 with DLD1 BRCA2 (−/−) cells (setting [3]) and in the assay with DLD1 WT cells (setting [3]) were 0.001 to 0.1 µM and not below 10 µM, respectively. Moreover, the pIC50 in assay [1] (POLθ ATPase, ADP-Glo) was 7.82 to 9.00.
Regarding `COc1cnc(Cl)cc1-c1cc(C)ncc1C(=O)Nc1nc2c(s1)CC(Nc1ccc(O)cc1)CC2` (stereo not drawn) [Example 135], the values for the IC50 in the assay on DLD1 BRCA2 (−/−) cells (setting [2]) and in the assay on DLD1 WT cells (setting [2]) were 0.5 to 2 µM and 5 to 10 µM, respectively. In assay [1], the pIC50 was 7.82 to 9.00.
`CCc1cc(C(=O)N2Cc3nc(NC(=O)c4cnc(C)cc4-c4cc(Cl)ncc4OC)sc3C2)n(C)n1` [Example 57, 2′-chloro-N-(5-(3-ethyl-1-methyl-1H-pyrazole-5-carbonyl)-5,6-dihydro-4H-pyrrolo[3,4-d]thiazol-2-yl)-5′-methoxy-6-methyl-[4,4′-bipyridine]-3-carboxamide]: the IC50 is 0.001 to 0.1 µM with DLD1 BRCA2 (−/−) cells (setting [2]) and not below 10 µM with DLD1 WT cells (setting [2]). In addition, in assay [1], the pIC50 was 7.82 to 9.00.
On to `CCn1ncc(Cl)c1C(=O)N1Cc2nc(NC(=O)c3cnc(C)cc3-c3cc(Cl)ncc3OC)sc2C1` [Example 393, 2′-chloro-N-(5-(4-chloro-1-ethyl-1H-pyrazole-5-carbonyl)-5,6-dihydro-4H-pyrrolo[3,4-d]thiazol-2-yl)-5′-methoxy-6-methyl-[4,4′-bipyridine]-3-carboxamide], for which the IC50 is 0.001 to 0.1 µM in the assay on DLD1 BRCA2 (−/−) cells (setting [3]) and not below 10 µM with DLD1 WT cells (setting [3]). For the same compound, the pIC50 in assay [1] (POLθ ATPase, ADP-Glo) was 7.82 to 9.00.
Regarding `COc1cnc(Cl)cc1-c1cc(C)ncc1C(=O)Nc1nc2c(s1)CN(C(=O)c1cc(C(F)(F)F)nn1C)C2` [Example 44, 2′-chloro-5′-methoxy-6-methyl-N-(5-(1-methyl-3-(trifluoromethyl)-1H-pyrazole-5-carbonyl)-5,6-dihydro-4H-pyrrolo[3,4-d]thiazol-2-yl)-[4,4′-bipyridine]-3-carboxamide], the IC50 is 0.001 to 0.1 µM in the assay on DLD1 BRCA2 (−/−) cells (setting [2]) and not below 10 µM in the assay on DLD1 WT cells (setting [2]). In addition, the pIC50 in assay [1] was 7.82 to 9.00.
The like results for `COc1cnc(Cl)cc1-c1cc(C)ncc1C(=O)Nc1nc2c(s1)CN(C(=O)C1CC(OC(F)(F)F)C1)C2` (stereo not drawn) [Example 196] were, in that order, 0.001 to 0.1 µM, not below 10 µM and 7.82 to 9.00.
In the same order, the values of `COc1cnc(Cl)cc1-c1cc(C)ncc1C(=O)Nc1nc2c(s1)CN(C(=O)c1nn(C)cc1OC)C2` [Example 157] are 0.25 to 0.5 µM, not below 10 µM and 7.82 to 9.00.
The like results for `COc1cnc(Cl)cc1-c1cc(C)ncc1C(=O)Nc1nc2c(s1)CN(C(=O)c1cccnc1C(F)F)C2` [Example 39, 2′-chloro-N-(5-(2-(difluoromethyl)nicotinoyl)-5,6-dihydro-4H-pyrrolo[3,4-d]thiazol-2-yl)-5′-methoxy-6-methyl-[4,4′-bipyridine]-3-carboxamide] were, in that order, 0.001 to 0.1 µM, not below 10 µM and 7.82 to 9.00.
In the case of `COc1cnc(Cl)cc1-c1cc(C)ncc1C(=O)Nc1nc2c(s1)CN(C(=O)c1ccc(OC(F)(F)F)cn1)C2` [Example 394, 2′-chloro-5′-methoxy-6-methyl-N-(5-(5-(trifluoromethoxy)picolinoyl)-5,6-dihydro-4H-pyrrolo[3,4-d]thiazol-2-yl)-[4,4′-bipyridine]-3-carboxamide], the IC50 is 0.001 to 0.1 µM in the assay with DLD1 BRCA2 (−/−) cells (setting [2]) and not below 10 µM with DLD1 WT cells (setting [2]). For the same compound, the pIC50 in assay [1] was 7.82 to 9.00.
As to `COc1cnc(Cl)cc1-c1cc(C)ncc1C(=O)Nc1nc2c(s1)CN(C(=O)c1ccc(C(F)F)cc1Cl)C2`, the values for the IC50 in the assay on DLD1 BRCA2 (−/−) cells (setting [3]) and with DLD1 WT cells (setting [3]) were 0.001 to 0.1 µM and not below 10 µM, respectively. The pIC50 in assay [1] (POLθ ATPase, ADP-Glo) was 7.82 to 9.00.
As for `COc1cnc(Cl)cc1-c1cc(C)ncc1C(=O)Nc1nc2c(s1)CN(C(=O)[C@@H]1CCCOC1)C2`, the results for the IC50 in the assay with DLD1 BRCA2 (−/−) cells (setting [2]) and in the assay on DLD1 WT cells (setting [2]) were 0.5 to 2 µM and not below 10 µM, respectively. In addition, the pIC50 in assay [1] was 7.82 to 9.00.
As to `COc1cnc(Cl)cc1-c1cc(C)ncc1C(=O)Nc1nc2c(s1)CN(C(=O)c1ccc(C(F)F)nc1)C2` [Example 12, 2′-chloro-N-(5-(6-(difluoromethyl)nicotinoyl)-5,6-dihydro-4H-pyrrolo[3,4-d]thiazol-2-yl)-5′-methoxy-6-methyl-[4,4′-bipyridine]-3-carboxamide], the IC50 in the assay on DLD1 BRCA2 (−/−) cells (setting [2]) was 0.001 to 0.1 µM; in the assay on DLD1 WT cells (setting [2]), not below 10 µM. Further, the pIC50 in assay [1] is 7.82 to 9.00.
Regarding `COc1cnc(Cl)cc1-c1cc(C)ncc1C(=O)Nc1nc2c(s1)CN(C(=O)c1cn(C)nc1OC)C2`, the IC50 in the assay on DLD1 BRCA2 (−/−) cells (setting [2]) was 0.25 to 0.5 µM; in the assay with DLD1 WT cells (setting [2]) it was not below 10 µM. The pIC50 in assay [1] was 7.82 to 9.00.
On to `COc1cn2cncc2cc1-c1cc(C)ncc1C(=O)Nc1nc2c(s1)CN(C(=O)c1ccc(C(F)F)cn1)C2` [Example 117], for which the IC50 was 0.001 to 0.1 µM with DLD1 BRCA2 (−/−) cells (setting [2]) and not below 10 µM in the assay on DLD1 WT cells (setting [2]). Besides, the pIC50 in assay [1] is 7.82 to 9.00.
Turning to “N-(5-(4-Chloro-2-methoxybenzoyl)-5,6-dihydro-4H-pyrrolo[3,4-d]thiazol-2-yl)-4-(5-cyano-2-methoxyphenyl)-6-methylnicotinamide [Example 437]”, the IC50 is 0.001 to 0.1 µM in the assay with DLD1 BRCA2 (−/−) cells (7-day CellTiter-Glo) and not below 10 µM with DLD1 WT cells (7-day CellTiter-Glo). In assay [1] (POLθ ATPase, ADP-Glo), the pIC50 is 7.82 to 9.00.
